Measured values taken from ChEMBL document CHEMBL1145767, “Conformational restriction of methionyl tRNA synthetase inhibitors leading to analogues with potent inhibition and excellent gram-positive antibacterial activity” (Bioorg Med Chem Lett, 2003).
Converted amounts (≈) assume the structure as drawn.

Columns and labels:
Type in all cases: functional
Staphylococcus aureus [1] = assay: Inhibitory activity against Staphylococcus aureus MRS
Staphylococcus aureus [2] = assay: Antibacterial activity against Staphylococcus aureus Oxford
Enterococcus faecalis [3] = assay: Antibacterial activity against Enterococcus faecalis 1
Enterococcus faecium = assay: Antibacterial activity against Enterococcus faecium
Staphylococcus aureus [4] = assay: Antibacterial activity against Staphylococcus aureus
[5] = test system: Staphylococcus epidermidis; assay: Antibacterial activity against Staphylococcus epidermidis
Enterococcus faecalis [6] = assay: Antibacterial activity against Enterococcus faecalis

IC50 (Staphylococcus aureus [1]) [nM]	MIC (Staphylococcus aureus [2]) [µg/mL]	MIC (Enterococcus faecalis [3]) [µg/mL]	MIC90 (Enterococcus faecium) [µg/mL]	MIC90 (Staphylococcus aureus [4]) [µg/mL]	MIC90 [5] [µg/mL]	MIC90 (Enterococcus faecalis [6]) [µg/mL]	SMILES
12	2 (≈ 4.97 µM)	0.25 (≈ 0.621 µM)	–	–	–	–	Oc1cc(NC[C@H]2CC[C@@H]2NCc2ccc(Cl)c(Cl)c2)nc2ccccc12 (racemic)
100	8 (≈ 19.2 µM)	1 (≈ 2.4 µM)	–	–	–	–	Oc1cc(NC[C@@H]2CCC[C@@H]2NCc2ccc(Cl)c(Cl)c2)nc2ccccc12
700	> 64	32 (≈ 76.9 µM)	–	–	–	–	Oc1cc(NC[C@@H]2CCC[C@H]2NCc2ccc(Cl)c(Cl)c2)nc2ccccc12
110	> 64	16 (≈ 39.8 µM)	–	–	–	–	Oc1cc(NC[C@H]2CC[C@H]2NCc2ccc(Cl)c(Cl)c2)nc2ccccc12 (racemic)
7.6	< 0.06	< 0.06	< 0.016	0.06 (≈ 0.109 µM)	0.125 (≈ 0.228 µM)	0.03 (≈ 0.0546 µM)	CCOc1c(Br)cc(Br)cc1CN[C@H]1CCC[C@@H]1CNc1cc(O)c2ccccc2n1
56	> 64	> 64	–	–	–	–	Oc1cc(NCc2ccccc2NCc2ccc(Cl)c(Cl)c2)nc2ccccc12
43	> 64	> 64	–	–	–	–	Oc1cc(N[C@H]2CCC[C@H](NCc3ccc(Cl)c(Cl)c3)C2)nc2ccccc12 (racemic)
10	< 0.06	< 0.06	–	–	–	–	Oc1cc(NC[C@H]2CCC[C@@H]2NCc2cc(Br)cc(Br)c2)nc2ccccc12
9	1 (≈ 2.4 µM)	0.125 (≈ 0.3 µM)	–	–	–	–	Oc1cc(NC[C@H]2CCC[C@@H]2NCc2ccc(Cl)c(Cl)c2)nc2ccccc12
18	16 (≈ 38.4 µM)	8 (≈ 19.2 µM)	–	–	–	–	Oc1cc(NC[C@H]2CCC[C@H]2NCc2ccc(Cl)c(Cl)c2)nc2ccccc12
78	64 (≈ 153 µM)	4 (≈ 9.56 µM)	–	–	–	–	Oc1cc(NC[C@H]2OCC[C@@H]2NCc2ccc(Cl)c(Cl)c2)nc2ccccc12
150	64 (≈ 154 µM)	32 (≈ 76.9 µM)	–	–	–	–	Oc1cc(N[C@@H]2CCC[C@H](NCc3ccc(Cl)c(Cl)c3)C2)nc2ccccc12 (racemic)
2300	> 64	> 64	–	–	–	–	Oc1cc(N[C@H]2CC[C@H](NCc3ccc(Cl)c(Cl)c3)CC2)nc2ccccc12
10	> 64	> 64	–	–	–	–	Oc1cc(NCC2=CCCC2NCc2ccc(Cl)c(Cl)c2)nc2ccccc12 (racemic)
